Results: patent US20230095836A1, “SUBSTITUTED 5,6-DIPHENYL-3(2H)-PYRIDAZINONES FOR USE AS FUNGICIDES” (FMC Corporation, priority 2020, published 2023)

Tests used:
Type in all cases: in vivo
Conditions in all cases: 50 ppm
[1] = tested on: Zymoseptoria tritici; experiment: Test A: test solution sprayed on wheat seedlings, inoculated next day with Zymoseptoria tritici (wheat leaf blotch); disease rating (100 = 100% disease control, 0 = no control; dash = not tested)
Outline: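 Wheat seedlings sprayed to run-off with test solution, inoculated next day with Z. tritici spores, held 48 h at 24° C in saturated atmosphere, then 17 days at 20° C before rating. Scores are % disease control relative to controls (100 = full control, 0 = none).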

[2] = tested on: Puccinia recondita f. sp. tritici; experiment: Test B: test solution sprayed on wheat seedlings, inoculated next day with Puccinia recondita f. sp. tritici (wheat leaf rust); disease rating (100 = 100% disease control, 0 = no control; dash = not tested)
From the text: The resulting test suspensions were then used in Tests A-F. The test solution was sprayed to the point of run-off on wheat seedlings. […] A rating of 100 indicates 100% disease control and a rating of 0 indicates no disease control (relative to the controls). A dash (—) indicates the compound was not tested.

[3] = tested on: Blumeria graminis f. sp. tritici; experiment: Test C: test suspension sprayed on wheat seedlings, inoculated next day with Blumeria graminis f. sp. tritici (wheat powdery mildew); visual disease rating (100 = 100% disease control, 0 = no control; dash = not tested)
Outline: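 Wheat seedlings were sprayed to run-off with test suspension, then dusted next day with Blumeria graminis f. sp. tritici spores. After 8 days at 20 °C in a growth chamber, disease was rated visually as percent control relative to untreated controls.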

[4] = tested on: Phakopsora pachyrhizi; experiment: Test D: test solution sprayed on soybean seedlings, inoculated next day with Phakopsora pachyrhizi (Asian soybean rust); visual disease rating (100 = 100% disease control, 0 = no control; dash = not tested)
Outline: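 Compounds predissolved in acetone (3% of final volume), suspended at ppm concentrations in 50/50 acetone/water with 250 ppm PEG400, sprayed to run-off on soybean seedlings. Inoculated next day with spores, 24 h saturated atmosphere at 22 °C, then 8 days growth chamber at 22 °C; visual rating, 100 = full control.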

[5] = tested on: Botrytis cinerea; experiment: Test E: test suspension sprayed on tomato seedlings, inoculated next day with Botrytis cinerea (tomato Botrytis); visual disease rating (100 = 100% disease control, 0 = no control; dash = not tested)
Outline: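 Tomato seedlings were sprayed to run-off and inoculated next day with Botrytis cinerea spores. They were held 48 h at 20° C in saturated humidity, then 3 days at 24° C. Disease control was rated visually against controls (100 = full, 0 = none).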

[6] = tested on: Alternaria solani; experiment: Test F: test suspension sprayed on tomato seedlings, inoculated next day with Alternaria solani (tomato early blight); visual disease rating (100 = 100% disease control, 0 = no control; dash = not tested)
Outline: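 Tomato seedlings sprayed to run-off with test suspension, inoculated next day with A. solani spores, held saturated at 27° C. for 48 h, then 20° C. for 3 days. Disease visually rated as % control relative to untreated controls.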

Row | SMILES | Test A disease control rating [1] | Test B disease control rating [2] | Test C disease control rating [3] | Test D disease control rating [4] | Test E disease control rating [5] | Test F disease control rating [6]
1 | COc1cc(OC)c(Br)c(-c2nn(C)c(=O)c(OC)c2-c2ccc(F)cc2Cl)c1 [Compound 79] | 100% | 100% | 100% | 100% | 97% | 100%
2 | Cn1nc(-c2cc(F)ccc2Cl)c(-c2ccc(F)cc2Cl)c(Cl)c1=O [Compound 82] | 100% | 100% | 100% | 100% | 64% | 100%
3 | COc1ccc(Cl)c(-c2nn(C)c(=O)c(Cl)c2-c2ccccc2)c1 [Compound 95] | 100% | 99% | 97% | 0% | 96% | 24%
4 | COc1cc(F)c(-c2c(-c3cc(OC)ccc3Cl)nn(C)c(=O)c2Cl)c(F)c1 [Compound 96] | 100% | 100% | 97% | 100% | 96% | 100%
5 | COc1ccc(Cl)c(-c2nn(C)c(=O)c(Cl)c2-c2ccc(F)cc2Br)c1 [Compound 97] | 100% | 100% | 100% | 100% | 96% | 99%
6 | CCn1nc(-c2cc(OC)cc(OC)c2Br)c(-c2c(F)cccc2F)c(C#N)c1=O [Compound 100] | 100% | 100% | 99% | 100% | 99% | 93%
7 | COc1ccc(Cl)c(-c2nn(C)c(=O)c(OC)c2-c2ccc(F)cc2Cl)c1 [Compound 101] | 100% | 100% | 99% | 100% | 99% | 99%
8 | COc1ccc(Cl)c(-c2nn(C)c(=O)c(OC)c2-c2ccc(F)cc2Br)c1 [Compound 103] | 100% | 100% | 100% | 97% | 91% | 99%
9 | Cn1nc(-c2cccc(Cl)c2Cl)c(-c2ccc(F)cc2Cl)c(Cl)c1=O [Compound 104] | 100% | 100% | 100% | 100% | 97% | 99%
10 | Cn1nc(-c2cccc(Cl)c2F)c(-c2ccc(F)cc2Cl)c(Cl)c1=O [Compound 105] | 100% | 99% | 99% | 79% | 96% | 99%
11 | Cn1nc(-c2cccc(F)c2F)c(-c2ccc(F)cc2Cl)c(Cl)c1=O [Compound 107] | 100% | 100% | 100% | 100% | 97% | 100%
12 | COc1c(-c2ccc(F)cc2Cl)c(-c2cccc(Cl)c2Cl)nn(C)c1=O [Compound 108] | 100% | 100% | 100% | 70% | 98% | 99%
13 | COc1c(-c2ccc(F)cc2Cl)c(-c2cccc(Cl)c2F)nn(C)c1=O [Compound 109] | 100% | 74% | 99% | 0% | 96% | 85%
14 | COc1c(-c2ccc(F)cc2Cl)c(-c2cccc(F)c2Br)nn(C)c1=O [Compound 110] | 100% | 100% | 100% | 79% | 96% | 99%
15 | COc1c(-c2ccc(F)cc2Cl)c(-c2cccc(F)c2F)nn(C)c1=O [Compound 116] | 100% | 100% | 99% | 52% | 98% | 100%
16 | COc1ccc(Cl)c(-c2nn(C)c(=O)cc2-c2ccc(F)cc2Cl)c1 [Compound 117] | 99% | 98% | 93% | 47% | 99% | 0%
17 | COc1ccc(Br)c(-c2nn(C)c(=O)c(Cl)c2-c2ccc(F)cc2Cl)c1 [Compound 118] | 99% | 100% | 99% | 100% | 98% | 100%
18 | Cn1nc(-c2cc(F)ccc2Br)c(-c2ccc(F)cc2Cl)c(Cl)c1=O [Compound 119] | 100% | 100% | 100% | 99% | 96% | 100%
19 | COc1c(-c2ccc(F)cc2Cl)c(-c2cc(F)ccc2Cl)nn(C)c1=O [Compound 120] | 100% | 100% | 99% | 77% | 33% | 0%
20 | COc1c(-c2ccc(F)cc2Cl)c(-c2cc(F)ccc2Br)nn(C)c1=O [Compound 121] | 100% | 100% | 99% | 72% | 99% | 99%
21 | COCc1c(-c2ccc(F)cc2Cl)c(-c2ccc(F)cc2Cl)nn(C)c1=O [Compound 122] | 100% | 0% | 98% | 0% | 53% | 0%
22 | Cn1nc(-c2ccc(F)cc2Cl)c(-c2ccc(F)cc2Cl)c(C(C)(C)O)c1=O [Compound 123] | 0% | 0% | 0% | 68% | 0% | 0%
23 | CC(=O)c1c(-c2ccc(F)cc2Cl)c(-c2ccc(F)cc2Cl)nn(C)c1=O [Compound 124] | 100% | 0% | 95% | 73% | 88% | 0%
